Measured values published in ChEMBL document CHEMBL5214920, “Emerging impact of triazoles as anti-tubercular agent” (Eur J Med Chem, 2022).
In brackets after ≈: the same amount, converted by molar mass.

System: Mycobacterium tuberculosis
Assay: Antitubercular activity against Mycobacterium tuberculosis H37Rv ATCC 27294 assessed as bacterial growth inhibition measured after 5 days by MABA method
Type: functional
Conditions: H37Rv ATCC 27294, 120 h, time 5 day

Compound | MIC
Cc1nc2ncccn2c1C(=O)NCc1cn(Cc2ccc(C#N)cc2)nn1 | 1.56 µg/mL
Cc1nc2ccccn2c1C(=O)NCc1cn(Cc2ccc(C(F)(F)F)cc2)nn1 | 1.56 µg/mL
C[C@H](CCC(=O)COc1cn(C[C@H]2O[C@@H](n3cnc4c(N)ncnc43)[C@@H]3OC(C)(C)O[C@@H]32)nn1)C12CCCC1C1CCC3C[C@H](O)CC[C@]3(C)C1CC2 (stereo not given in full) | 4.09 µg/mL
COc1ccc2nc(Cl)c(C(=O)NCc3cn(CC(=O)c4ccc(F)cc4)nn3)cc2c1 | 1.6 µg/mL
O=C(NCc1cn(Cc2ccc(C(F)(F)F)cc2)nn1)c1cn2cccnc2n1 | 1.56 µg/mL
Cc1nc2ccccn2c1C(=O)NCc1cn(Cc2ccccc2F)nn1 | 1.56 µg/mL
Cc1nc2ccccn2c1C(=O)NCc1cn(Cc2ccc([N+](=O)[O-])cc2)nn1 | 1.56 µg/mL
COc1ccc2nc(Cl)c(C(=O)NCc3cn(Cc4ccccc4)nn3)cc2c1 | 1.6 µg/mL
Cc1ccc(Cn2cc(CNC(=O)c3cn4ccccc4n3)nn2)cc1 | 1.56 µg/mL
Cc1nc2ncccn2c1C(=O)NCc1cn(Cc2ccc(C(F)(F)F)cc2)nn1 | 1.56 µg/mL
COc1ccc(Cn2cc(CNC(=O)c3cn4ccccc4n3)nn2)cc1 | 1.56 µg/mL
O=C(NCc1cn(Cc2ccc([N+](=O)[O-])cc2)nn1)c1cn2cccnc2n1 | 1.56 µg/mL
COc1ccc(Cn2cc(CNC(=O)c3cc4cc(OC)ccc4nc3Cl)nn2)cc1 | 1.6 µg/mL
Cc1ccc(Cn2cc(CNC(=O)c3cn4cccnc4n3)nn2)cc1 | 1.56 µg/mL
O=C(NCc1cn(Cc2ccc([N+](=O)[O-])cc2)nn1)c1cn2ccccc2n1 | 1.56 µg/mL
COc1ccc(Cn2cc(CNC(=O)c3c(C)nc4ccccn34)nn2)cc1 | 1.56 µg/mL
Cc1nc2ncccn2c1C(=O)NCc1cn(Cc2ccccc2F)nn1 | 1.56 µg/mL

Compound | MIC
COc1ccc(C(=O)Cn2cc(CNC(=O)c3cc4cc(OC)ccc4nc3Cl)nn2)cc1 | 1.6 µg/mL
Cc1ccc(Cn2cc(CNC(=O)c3c(C)nc4ccccn34)nn2)cc1 | 1.56 µg/mL
Cc1ccc(Cn2cc(CNC(=O)c3c(C)nc4ncccn34)nn2)cc1 | 1.56 µg/mL
COc1ccc2nc(Cl)c(C(=O)NCc3cn(Cc4ccc(C#N)cc4)nn3)cc2c1 | 1.6 µg/mL
COc1ccc(Cn2cc(CNC(=O)c3c(C)nc4ncccn34)nn2)cc1 | 1.56 µg/mL
O=C(NCc1cn(Cc2ccc(C(F)(F)F)cc2)nn1)c1cn2ccccc2n1 | 1.56 µg/mL
Cc1nc2ncccn2c1C(=O)NCc1cn(Cc2ccc([N+](=O)[O-])cc2)nn1 | 1.56 µg/mL
COc1ccc(Cn2cc(COCc3c(-c4ccc(OC)cc4)nc4ccccn34)nn2)cc1 | 1.56 µg/mL
O=C(NCc1cn(Cc2ccccc2F)nn1)c1cn2cccnc2n1 | 1.56 µg/mL
COc1ccc(-c2nc3ccccn3c2COCc2cn(Cc3ccc(C)cc3)nn2)cc1 | 1.56 µg/mL
COc1ccc(Cn2cc(CNC(=O)c3cn4cccnc4n3)nn2)cc1 | 1.56 µg/mL
O=C(NCc1cn(Cc2ccccc2F)nn1)c1cn2ccccc2n1 | 1.56 µg/mL
N#Cc1ccc(Cn2cc(CNC(=O)c3cn4cccnc4n3)nn2)cc1 | 1.56 µg/mL
COc1ccc(Cn2cc(COCc3c(-c4ccccc4F)nc4ccccn34)nn2)cc1 | 1.56 µg/mL
O=C(O)c1cn(C2CC2)c2cc(N3CCNCC3)c(F)cc2c1=O [CIPROFLOXACIN] | 3.12 µM
NC(=O)c1cnccn1 [PYRAZINAMIDE] | 3.12 µg/mL

System: Mycobacterium tuberculosis
Assay: Antitubercular activity against Mycobacterium tuberculosis H37Rv assessed as bacterial growth inhibition measured after 5 days by MABA method
Type: functional
Conditions: 120 h, time 5 day

Compound | MIC | MIC90 [µM]
COc1ccc(-n2ncn(Cc3cc4ccccc4nc3Cl)c2=O)cc1 | 0.078 µM | 
CCc1nn(-c2ccccc2)c(=O)n1N(Cc1ccccc1)Cn1nnc2ccccc21 | 3.12 µg/mL | 
COc1ccc(-n2ncn(Cc3cc4cc(OC)ccc4nc3Cl)c2=O)cc1 | 0.075 µM | 
N/N=c1\ccc2ccccc2o1 | 50 µg/mL | 
CCc1nn(-c2ccccc2)c(=O)n1N(Cc1ccc(O)cc1)CN(CC)CC | 6.25 µg/mL | 
COc1ccc(-n2ncn(Cc3cc4cc(C)ccc4nc3Cl)c2=O)cc1 | 0.077 µM | 
CC1=CC(C)Oc2cc(OCc3cn(Cc4cc(=O)oc5ccc(Cl)cc45)nn3)ccc21 (stereo not given) | 6.25 µg/mL | 
Cc1ccc2nc(O)c(Cn3cnn(-c4ccccc4)c3=O)cc2c1 |  | 0.073 (≈ 0.0243 µg/mL)
CC1=CC(C)Oc2cc(OCc3cn(Cc4cc(=O)oc5ccc6ccccc6c45)nn3)ccc21 (stereo not given) | 6.25 µg/mL | 
COc1ccc2nc(O)c(Cn3cnn(-c4ccccc4)c3=O)cc2c1 | 0.074 µM | 
O=C(O)c1cn(C2CC2)c2cc(N3CCNCC3)c(F)cc2c1=O [CIPROFLOXACIN] | 3.12 µg/mL | 
NC(=O)c1cnccn1 [PYRAZINAMIDE] | 3.12 µg/mL | 

System: Mycobacterium tuberculosis
Assay: Antitubercular activity against Mycobacterium tuberculosis H37Rv assessed as bacterial growth inhibition measured after 7 days by MABA method
Type: functional
Conditions: 168 h, time 7 day

Compound | MIC [µg/mL]
Cc1ccc2c(c1)C=CC1(CCc3c(nnn3-c3ccccc3)C1)O2 (stereo not given) | 1.56 (≈ 4.74 µM)

System: Mycobacterium tuberculosis
Assay: Antitubercular activity against Mycobacterium tuberculosis H37Rv ATCC 27294 assessed as bacterial growth inhibition measured after 7 days by MABA method
Type: functional
Conditions: H37Rv ATCC 27294, 168 h, time 7 day

Compound | MIC
O=C(Cn1cc(COc2ccc([N+](=O)[O-])cc2)nn1)Nc1ccc(Cl)cc1 | > 25 µg/mL
O=C(Cn1cc(COc2ccccc2)nn1)Nc1ccccc1Cl | > 25 µg/mL
Cc1ccccc1NC(=O)Cn1cc(COc2ccc([N+](=O)[O-])cc2)nn1 | > 25 µg/mL
Cc1ccc(NC(=O)Cn2cc(COc3ccc([N+](=O)[O-])cc3)nn2)cc1 | > 25 µg/mL
COc1ccc(OCc2cn(CC(=O)Nc3ccc(C)cc3)nn2)cc1 | > 25 µg/mL
COc1ccc(OCc2cn(CC(=O)Nc3ccccc3)nn2)cc1 | > 25 µg/mL
O=C(Cn1cc(COc2ccc([N+](=O)[O-])cc2)nn1)Nc1cccc(Cl)c1 | > 25 µg/mL
Cc1cccc(NC(=O)Cn2cc(COc3ccccc3)nn2)c1 | > 25 µg/mL
Cc1cccc(NC(=O)Cn2cc(COc3ccc([N+](=O)[O-])cc3)nn2)c1 | > 25 µg/mL
COc1ccc(OCc2cn(CC(=O)Nc3ccc(Cl)cc3)nn2)cc1 | > 25 µg/mL
O=C(Cn1cc(COc2ccccc2)nn1)Nc1ccc(Cl)cc1 | > 25 µg/mL
COc1ccc(OCc2cn(CC(=O)Nc3ccccc3Cl)nn2)cc1 | > 25 µg/mL
COc1ccc(OCc2cn(CC(=O)Nc3cccc(Cl)c3)nn2)cc1 | > 25 µg/mL
COc1ccc(OCc2cn(CC(=O)Nc3cccc(C)c3)nn2)cc1 | > 25 µg/mL
Cc1ccccc1NC(=O)Cn1cc(COc2ccccc2)nn1 | > 25 µg/mL
O=C(c1ccccc1)C1C(c2cc3ccccc3nc2N2NNc3ccccc32)C2CCCN2C12C(=O)Nc1ccccc12 (stereo not given) | 1.13 µM
O=C(Cn1cc(COc2ccccc2)nn1)Nc1cccc(Cl)c1 | > 25 µg/mL
O=C(Cn1cc(COc2ccc([N+](=O)[O-])cc2)nn1)Nc1ccccc1 | > 25 µg/mL
COc1ccc(OCc2cn(CC(=O)Nc3ccccc3C)nn2)cc1 | > 25 µg/mL
O=C(Cn1cc(COc2ccc([N+](=O)[O-])cc2)nn1)Nc1ccccc1Cl | > 25 µg/mL
Cc1ccc(NC(=O)Cn2cc(COc3ccccc3)nn2)cc1 | > 25 µg/mL

System: Mycobacterium tuberculosis
Assay: Antitubercular activity against Mycobacterium tuberculosis H37Rv assessed as bacterial growth inhibition measured after 7 days by direct susceptibility assay
Type: functional
Conditions: 168 h, time 7 day

Compound | MIC [µg/mL]
COc1c(N2CCNCC2)c(F)cc2c(=O)c(C(=O)O)cn(C3CC3)c12 | 1.56 (≈ 4.32 µM)
COc1c(N2CCN(Cc3cn(CCN4C(=O)/C(=N\NC(N)=O)c5cc(Cl)ccc54)nn3)CC2)c(F)cc2c(=O)c(C(=O)O)cn(C3CC3)c12 | 0.39 (≈ 0.552 µM)
O=C(O)c1cn(C2CC2)c2c(NO)c(N3CCN(Cc4cn(CCN5C(=O)/C(=N\O)c6ccccc65)nn4)CC3)c(F)cc2c1=O | 0.39 (≈ 0.617 µM)
O=C(O)c1cn(C2CC2)c2cc(N3CCN(Cc4cn(CCN5C(=O)Cc6ccccc65)nn4)CC3)c(F)cc2c1=O | 0.2 (≈ 0.35 µM)
O=C1C(=O)N(Cc2cn(Cc3ccc([N+](=O)[O-])c([N+](=O)[O-])c3)nn2)c2ccccc21 | 7.56 (≈ 18.5 µM)
CO/N=C1/C(=O)C(CCOCCOCCOCCn2cc(CN3C(=O)/C(=N/OC)c4cc(F)ccc43)nn2)c2ccccc21 (stereo not given) | 128 (≈ 210 µM)
O=C1C(=O)N(Cc2cn(Cc3ccc(Br)cc3)nn2)c2ccccc21 | 8.09 (≈ 20.4 µM)
O=C(O)c1cn(C2CC2)c2cc(N3CCNCC3)c(F)cc2c1=O [CIPROFLOXACIN] | 3.12 (≈ 9.42 µM)

System: Mycobacterium tuberculosis
Assay: Antitubercular activity against Mycobacterium tuberculosis H37Rv assessed as bacterial growth inhibition measured after 24 hrs by agar micro dilution method
Type: functional
Conditions: not given

Compound | MIC [µg/mL]
COc1ccccc1C1NN=C2C1Sc1nc(-c3ccc(C)cc3)nn12 (stereo not given) | 3.12 (≈ 8.6 µM)
Cc1ccc(-c2nc3n(n2)C2=NOC(c4cccc([N+](=O)[O-])c4)C2S3)cc1 (stereo not given) | 3.12 (≈ 8.24 µM)
Cc1ccc(-c2nc3n(n2)C2=NNC(c4ccc([N+](=O)[O-])cc4)C2S3)cc1 (stereo not given) | 3.12 (≈ 8.26 µM)
Cc1ccc(-c2nc3n(n2)C2=NOC(c4ccccc4)C2S3)cc1 (stereo not given) | 3.12 (≈ 9.34 µM)
Cc1ccc(-c2nc3n(n2)C2=NOC(c4ccc(N(C)C)cc4)C2S3)cc1 (stereo not given) | 3.12 (≈ 8.28 µM)
Cc1ccc(-c2nc3n(n2)C2=NOC(c4ccc([N+](=O)[O-])cc4)C2S3)cc1 (stereo not given) | 3.12 (≈ 8.24 µM)
Cc1ccc(-c2nc3n(n2)C2=NNC(c4ccc(Cl)cc4)C2S3)cc1 (stereo not given) | 3.12 (≈ 8.49 µM)
Cc1ccc(-c2nc3n(n2)C2=NNC(c4ccc(N(C)C)cc4)C2S3)cc1 (stereo not given) | 3.12 (≈ 8.3 µM)
COc1ccc(C2NN=C3C2Sc2nc(-c4ccc(C)cc4)nn23)cc1 (stereo not given) | 3.12 (≈ 8.6 µM)
Cc1ccc(-c2nc3n(n2)C2=NOC(c4ccc(Cl)cc4)C2S3)cc1 (stereo not given) | 3.12 (≈ 8.47 µM)
Cc1ccc(-c2nc3n(n2)C2=NOC(c4ccc(Br)cc4)C2S3)cc1 (stereo not given) | 3.12 (≈ 7.56 µM)
Cc1ccc(-c2nc3n(n2)C2=NNC(c4ccc(Br)cc4)C2S3)cc1 (stereo not given) | 3.12 (≈ 7.58 µM)
COc1ccc(C2ON=C3C2Sc2nc(-c4ccc(C)cc4)nn23)cc1 (stereo not given) | 3.12 (≈ 8.58 µM)
Cc1ccc(-c2nc3n(n2)C2=NNC(c4cccc([N+](=O)[O-])c4)C2S3)cc1 (stereo not given) | 3.12 (≈ 8.26 µM)
COc1ccccc1C1ON=C2C1Sc1nc(-c3ccc(C)cc3)nn12 (stereo not given) | 3.12 (≈ 8.58 µM)
